Measurements taken from PMC8234143, “Synthesis and Antiviral Evaluation of Nucleoside Analogues Bearing One Pyrimidine Moiety and Two D-Ribofuranosyl Residues” (Molecules, 2021).
Entries after “also recorded” stand apart in the source; their conditions may differ. Where two headings read alike, the source gives them in different places.

Experiments:
[1] = tested on: PC-3; assay: Cytotoxicity assay (Cytell Cell Imaging, DAPI/propidium iodide); assay type: cell-based; conditions: cytotoxic activity, human prostate adenocarcinoma, read-out: IC50 Cancer Cell Lines PC-3
[2] = tested on: M-HeLa; assay: as above; assay type: cell-based; conditions: cytotoxic activity, human cervix epitheloid carcinoma, read-out: IC50 Cancer Cell Lines M-HeLa
[3] = tested on: HuTu-80; assay: as above; assay type: cell-based; conditions: Homo sapiens, HuTu80; cytotoxic activity, duodenal adenocarcinoma; read-out: IC50 Cancer Cell Lines HuTu-80
[4] = tested on: WI-38; assay: as above; assay type: cell-based; conditions: cytotoxic activity, normal human lung fibroblasts, read-out: IC50 Normal Cell Line WI-38
[5] = tested on: Vero cells
[6] = in vitro; conditions: dog
[7] = in vitro; conditions: African green monkey, CC50, Vero cells, MTT; concentration causing 50% cell death
[8] = tested on: A/Puerto Rico/8/34 (H1N1) influenza virus; assay: Antiviral (cytoprotection, MTT) assay against influenza virus in MDCK cells; assay type: cell-based; conditions: for SI: CC50/IC50 ratio, influenza H1N1 / MDCK; for IC50: 48 h
[9] = tested on: Coxsackie B3 virus; assay: Antiviral (cytoprotection, MTT) assay against Coxsackie B3 virus in Vero cells; assay type: cell-based, coxsackievirus B3; conditions: for IC50: 50% inhibition of virus replication, Vero cells, 48 h; for SI: CC50/IC50 ratio, Coxsackie B3 / Vero
[10] = tested on: Vero cells; conditions: cited from earlier work
[11] = tested on: A/Puerto Rico/8/34 (H1N1) influenza virus; design: method as in PMID 32930935; conditions: cited from earlier work; for IC50: 50% inhibition of virus replication, MDCK cells, earlier published compounds; for SI: CC50/IC50 ratio, influenza H1N1 / MDCK; for antiviral activity against influenza virus A H1N1 (in words): monosubstituted analogues
[12] = tested on: MDCK cells; conditions: earlier published compounds; cited from earlier work
[13] = tested on: Coxsackie B3 virus; design: method as in PMID 32930935; conditions: cited from earlier work; for IC50: 50% inhibition of virus replication, Vero cells; for SI: CC50/IC50 ratio, Coxsackie B3 / Vero
[14] = Influenza A virus, H1N1, MDCK, 50% inhibition of virus replication, MDCK cells, read-out: IC50
[15] = 50% inhibition of virus replication, MDCK cells, read-out: IC50

| SMILES | CC50 [6] [µM] | CC50 [7] [µM] | SI [8] | SI [9] | IC50 ([9]; Enterovirus B, B3, Vero) [µM] | IC50 [8, 14] [µM] | IC50 [11] [µM] | SI [11] | other results |
| --- | --- | --- | --- | --- | --- | --- | --- | --- | --- |
| O=c1[nH]cc(F)c(=O)[nH]1 [5-Fluorouracil, reference compound] |  |  |  |  |  |  |  |  | IC50 [1]: 10.3 ± 0.8 µM; IC50 [2]: 62 ± 4.9 µM; IC50 [3]: 65.2 ± 5.5 µM; IC50 [4]: 82.5 ± 6.6 µM |
| CC(=O)OCC1OC(n2cc(CCCCn3c(C)cc(=O)n(CCCCc4cn(C5OC(COC(C)=O)C(OC(C)=O)C5OC(C)=O)nn4)c3=O)nn2)C(OC(C)=O)C1OC(C)=O (centres unmarked) [Compound 2f] | > 338 | 18 | 4 | 1 | 12.4 |  |  |  | CC50 ([5]; Vero cells, MTT, concentration causing 50% cell death): 17.7 ± 0.6 µM; IC50 [1]: > 100 µM; IC50 [2]: 88.1 ± 7.4 µM; IC50 [3]: > 100 µM; IC50 ([8]; Influenza A virus, H1N1, MDCK): 96.3 ± 12.4 µM; antiviral activity against influenza virus A H1N1 (in words) ([8]; MDCK cells): inactive; IC50 [9]: > 12.4 µM; IC50 [4]: > 100 µM |
| Cc1cc(=O)n(Cc2cn(C3OC(CO)C(O)C3O)nn2)c(=O)n1Cc1cn(C2OC(CO)C(O)C2O)nn1 (centres unmarked) [Compound 2g] | > 543 | > 543 | 1 | 1 | > 543 | > 100 |  |  | IC50 ([8]; Influenza A virus, H1N1, MDCK): > 543 µM; antiviral activity against influenza virus A H1N1 (in words) ([8]; MDCK cells): did not demonstrate antiviral activity |
| Cc1cc(=O)n(CCCc2cn(C3OC(CO)C(O)C3O)nn2)c(=O)n1CCCc1cn(C2OC(CO)C(O)C2O)nn1 (centres unmarked) [Compound 2h] | > 493 | > 493 | 1 | 1 | > 493 | > 100 |  |  | IC50 ([8]; Influenza A virus, H1N1, MDCK): > 493 µM |
| Cc1cc(=O)n(CCCCc2cn(C3OC(CO)C(O)C3O)nn2)c(=O)n1CCCCc1cn(C2OC(CO)C(O)C2O)nn1 (centres unmarked) [Compound 2i] | > 471 | > 471 | 8 | 1 | > 471 | 57.5 ± 7.1 |  |  | cytotoxicity against the Vero cell line (in words) [5]: not cytotoxic; IC50 [1]: > 100 µM; IC50 [2]: 100 ± 8.5 µM; IC50 [3]: > 100 µM; IC50 [4]: > 100 µM |
| Cc1cc(=O)[nH]c(=O)n1Cc1cn([C@@H]2O[C@H](CO)[C@@H](O)[C@H]2O)nn1 [Compound 2j] |  |  |  |  |  |  | > 885 | 1 | CC50 [10]: > 1180 µM; antiviral activity against influenza virus A H1N1 (in words) [11]: did not demonstrate antiviral activity; CC50 [12]: > 885 µM; IC50 [13]: > 1180 µM; SI [13]: 1 ^4 |
| Cc1cc(=O)[nH]c(=O)n1CCCc1cn([C@@H]2O[C@H](CO)[C@@H](O)[C@H]2O)nn1 [Compound 2k] |  |  |  |  |  |  | 43 ± 5 | 6 ^4 | CC50 [10]: > 1090 µM; IC50 [13]: > 1090 µM; SI [13]: 1 ^4,3 |
| Cc1cc(=O)[nH]c(=O)n1CCCCc1cn([C@@H]2O[C@H](CO)[C@@H](O)[C@H]2O)nn1 [Compound 2m] |  |  |  |  |  |  | 48 ± 6 | 6 ^4 | IC50 [13]: 106 ± 11 µM; SI [13]: 6 ^4,3 |
| CC(=O)OCC1OC(n2cc(CCCCn3c(=O)c4ccccc4n(CCCCc4cn(C5OC(COC(C)=O)C(OC(C)=O)C5OC(C)=O)nn4)c3=O)nn2)C(OC(C)=O)C1OC(C)=O (centres unmarked) [Compound 4f] | > 324 |  | 3 |  |  | 104 ± 15.1 |  |  | antiviral activity against influenza virus A H1N1 (in words) ([8]; MDCK cells): inactive |
| O=c1c2ccccc2n(Cc2cn(C3OC(CO)C(O)C3O)nn2)c(=O)n1Cc1cn(C2OC(CO)C(O)C2O)nn1 (centres unmarked) [Compound 4g] | > 510 | 381 ± 26.1 | 3 | 2 | > 170 | > 100 |  |  | IC50 [8, 15]: 180 ± 19.9 µM |
| O=c1c2ccccc2n(CCCc2cn(C3OC(CO)C(O)C3O)nn2)c(=O)n1CCCc1cn(C2OC(CO)C(O)C2O)nn1 (centres unmarked) [Compound 4h] | > 465 | > 465 | 3 | 1 | > 465 | > 100 |  |  | IC50 [8, 15]: 186 ± 21.6 µM; antiviral activity against influenza virus A H1N1 (in words) ([8]; MDCK cells): did not demonstrate antiviral activity |
| O=c1c2ccccc2n(CCCCc2cn(C3OC(CO)C(O)C3O)nn2)c(=O)n1CCCCc1cn(C2OC(CO)C(O)C2O)nn1 (centres unmarked) [Compound 4i] | > 446 | > 446 | 2 | 1 | > 446 | 297 |  |  | IC50 [8, 15]: 297 ± 32.4 µM |
| O=c1[nH]c(=O)n(Cc2cn([C@@H]3O[C@H](CO)[C@@H](O)[C@H]3O)nn2)c2ccccc12 [Compound 4j] |  |  |  |  |  |  | 42 ± 5 | 3 | IC50 [13]: 133 ± 15 µM; SI [13]: 1 ^4 |
| O=c1[nH]c(=O)n(CCCc2cn([C@@H]3O[C@H](CO)[C@@H](O)[C@H]3O)nn2)c2ccccc12 [Compound 4k] |  |  |  |  |  |  | 212 ± 25 | 4 ^4 | CC50 [10]: 101 ± 8 µM; antiviral activity against influenza virus A H1N1 (in words) [11]: did not demonstrate antiviral activity; CC50 [12]: > 744 µM; IC50 [13]: > 82 µM; SI [13]: 1 ^4,3 |
| O=c1[nH]c(=O)n(CCCCc2cn([C@@H]3O[C@H](CO)[C@@H](O)[C@H]3O)nn2)c2ccccc12 [Compound 4m] |  |  |  |  |  |  | 30 ± 4 | 24 | CC50 [12]: > 719 µM; IC50 [13]: > 79 µM; SI [13]: 1 ^4,3 |
| O=c1c2nc3ccccc3nc2n(Cc2cn(C3OC(CO)C(O)C3O)nn2)c(=O)n1Cc1cn(C2OC(CO)C(O)C2O)nn1 (centres unmarked) [Compound 5g] | > 468 | > 468 | 3 | 1 | > 468 | > 100 |  |  | IC50 [8, 15]: 187 ± 20.8 µM |
| O=c1c2nc3ccccc3nc2n(CCCc2cn(C3OC(CO)C(O)C3O)nn2)c(=O)n1CCCc1cn(C2OC(CO)C(O)C2O)nn1 (centres unmarked) [Compound 5h] | > 431 | > 431 | 4 | 1 | > 431 | > 100 |  |  | IC50 [8, 15]: 115 ± 15.2 µM |
| CC(=O)OCC1OC(n2cc(CCCc3c(C)[nH]c(=O)n(CCCc4cn(C5OC(COC(C)=O)C(OC(C)=O)C5OC(C)=O)nn4)c3=O)nn2)C(OC(C)=O)C1OC(C)=O (centres unmarked) [Compound 11c] | > 349 |  | 12 |  |  | 29.2 ± 4.3 |  |  |  |
| CC(=O)OCC1OC(n2cc(CCCCc3c(C)[nH]c(=O)n(CCCCc4cn(C5OC(COC(C)=O)C(OC(C)=O)C5OC(C)=O)nn4)c3=O)nn2)C(OC(C)=O)C1OC(C)=O (centres unmarked) [Compound 11d] | > 338 |  | 3 |  |  | 119 ± 8.7 |  |  | antiviral activity against influenza virus A H1N1 (in words) ([8]; MDCK cells): did not demonstrate antiviral activity; also recorded: inactive |
| Cc1[nH]c(=O)n(CCCc2cn(C3OC(CO)C(O)C3O)nn2)c(=O)c1CCCc1cn(C2OC(CO)C(O)C2O)nn1 (centres unmarked) [Compound 11e] | > 493 | 394 ± 21.1 | 3 | 2 | > 164 | 164 ± 19.2 |  |  | antiviral activity against influenza virus A H1N1 (in words) ([8]; MDCK cells): completely inactive |
| Cc1[nH]c(=O)n(CCCCc2cn(C3OC(CO)C(O)C3O)nn2)c(=O)c1CCCCc1cn(C2OC(CO)C(O)C2O)nn1 (centres unmarked) [Compound 11f] | > 471 | > 471 | 1 | 1 | > 471 |  |  |  | IC50 ([8]; Influenza A virus, H1N1, MDCK): > 471 µM; antiviral activity against influenza virus A H1N1 (in words) ([8]; MDCK cells): did not demonstrate antiviral activity |
| Cc1[nH]c(=O)[nH]c(=O)c1CCCc1cn([C@@H]2O[C@H](CO)[C@@H](O)[C@H]2O)nn1 [Compound 11g] |  |  |  |  |  |  | 67 ± 8 | 2 ^4 | CC50 [10]: 140 ± 10 µM; CC50 [12]: 104 ± 8 µM; SI [13]: 4 ^4 |
| Cc1[nH]c(=O)[nH]c(=O)c1CCCCc1cn([C@@H]2O[C@H](CO)[C@@H](O)[C@H]2O)nn1 [Compound 11h] |  |  |  |  |  |  | 15 ± 3 | 5 | CC50 [10]: 525 ± 31 µM; CC50 [12]: 79 ± 6 µM; IC50 [13]: > 263 µM; SI [13]: 2 ^4 |
| CC(=O)OC[C@H]1O[C@@H](n2cc(CCCCc3c(C)[nH]c(=O)[nH]c3=O)nn2)[C@H](OC(C)=O)[C@@H]1OC(C)=O [Compound 11i] |  |  |  |  |  |  | > 592 | 1 ^4 | antiviral activity against influenza virus A H1N1 (in words) [11]: did not demonstrate antiviral activity; CC50 [12]: > 592 µM |
| Cc1[nH]c(=O)[nH]c(=O)c1CCCCc1cn([C@@H]2O[C@H](CO)[C@@H](O)[C@H]2O)nn1 [Compound 11j] |  |  |  |  |  |  | > 787 | 1 | antiviral activity against influenza virus A H1N1 (in words) [11]: did not demonstrate antiviral activity; CC50 [12]: > 787 µM |
| CCC(CC)O[C@@H]1C=C(C(=O)O)C[C@H](N)[C@H]1NC(C)=O [Oseltamivir carboxylate, reference compound] | > 200 |  | >667 |  |  |  |  |  | IC50 ([8]; Influenza A virus, H1N1, MDCK): 0.3 ± 0.06 µM |
| Cc1cc(CCCOc2c(C)cc(-c3noc(C(F)(F)F)n3)cc2C)on1 [Pleconaril, reference compound] |  | > 1000 |  | 46 | 21.6 |  |  |  |  |
| CC(N)C12CC3CC(CC(C3)C1)C2 (centres unmarked) [Rimantadine, reference compound] | 340 ± 16 |  | 4 |  |  |  |  |  | IC50 ([8]; Influenza A virus, H1N1, MDCK): 77 ± 8 µM |
